Our source for the IC50 values is patent US9695163B2, “Thiazole orexin receptor antagonists” (MERCK SHARP & DOHME CORP., priority 2013, dated 2017).

Some results are limits rather than exact numbers.

Assay [1] addresses human orexin-2 receptor (hOX2R) (Homo sapiens (Human), UniProt O43614). Kind of assay: FLIPR Ca2+ Flux Assay, CHO cells expressing human orexin-2 receptor. The class given is cell-based. Particulars: agonist Ala-6,12 human orexin-A 70 pM. Here is the method:
Briefly, for intracellular calcium measurements, Chinese hamster ovary (CHO) cells expressing the orexin-1 receptor (e.g., rat or human) or the orexin-2 receptor (e.g., rat or human), are grown in Iscove's modified DMEM containing 2 mM L-glutamine, […], 1% hypoxanthine-thymidine supplement, 100 U/ml penicillin, 100 μg/ml streptomycin and 10% heat-inactivated fetal calf serum (FCS). The cells are seeded at approximately 20,000 cells per well into 384-well clear bottom sterile plates coated with poly-D-lysine. The seeded plates are incubated overnight at 37° C. and 5% CO2. Human ala-6,12 orexin-A can be used as the agonist and prepared as a 1 mM stock solution in 1% bovine serum albumin (BSA) and diluted in assay buffer (HBSS containing 20 mM HEPES, 0.1% BSA and 2.5 mM probenecid, pH7.4) for use in the assay at a final concentration of 70 pM. Test compounds are prepared as 10 mM stock solution in DMSO, then diluted in 384-well plates, first in DMSO, then in assay buffer. On the day of the assay, cells are washed 3 times with 100 μl assay buffer and then incubated for 60 minutes (37° C., 5% CO2) in 60 μl assay buffer containing 1 μM Fluo-4 AM ester, 0.02% pluronic acid, and 1% BSA. The dye loading solution is then aspirated and cells are washed 3 times with 100 μl assay buffer. 30 μl of that same buffer is left in each well. Within the Fluorescent Imaging Plate Reader (FLIPR, Molecular Devices), test compounds are added to the plate in a volume of 25 μl, incubated for 5 minutes, and then 25 μl of agonist is added. Fluorescence is measured for each well at 1 second intervals for 5 minutes, and the height of each fluorescence peak is compared to the height of the fluorescence peak induced by 70 pM of agonist ala-6,12 orexin-A with buffer in place of test compound. IC50 value for the test compound is determined to be the concentration of compound needed to inhibit 50% of the agonist response. Alternatively, compound potency can be assessed using a radioligand binding assay (described in Bergman et. al., Bioorg. Med. Chem. Lett. 2008, 18:1425-1430) in which the inhibition constant (Ki) is determined in membranes prepared from CHO cells expressing either the OX1 or OX2 receptor. The intrinsic orexin receptor antagonist activity of a compound of the present invention may be determined by these assays. […]

For assay [2], the target named is human orexin-1 receptor (hOX1R) (Homo sapiens (Human), UniProt O43613). Kind of assay: FLIPR Ca2+ Flux Assay, CHO cells expressing human orexin-1 receptor. The class given is cell-based. Particulars: agonist Ala-6,12 human orexin-A 70 pM. From the text: The utility of the compounds in accordance with the present invention as orexin receptor OX1R and/or OX2R antagonists may be readily determined without undue experimentation by methodology well known in the art, including the “FLIPR Ca^2+ Flux Assay” (Okumura et al., Biochem. Biophys. Res. Comm. 2001, 280:976-981). Briefly, for intracellular calcium measurements, Chinese hamster ovary (CHO) cells expressing the orexin-1 receptor (e.g., rat or human) or the orexin-2 receptor (e.g., rat or human), are grown in Iscove's modified DMEM containing 2 mM L-glutamine, […], 1% hypoxanthine-thymidine supplement, 100 U/ml penicillin, 100 μg/ml streptomycin and 10% heat-inactivated fetal calf serum (FCS). The cells are seeded at approximately 20,000 cells per well into 384-well clear bottom sterile plates coated with poly-D-lysine. The seeded plates are incubated overnight at 37° C. and 5% CO2. Human ala-6,12 orexin-A can be used as the agonist and prepared as a 1 mM stock solution in 1% bovine serum albumin (BSA) and diluted in assay buffer (HBSS containing 20 mM HEPES, 0.1% BSA and 2.5 mM probenecid, pH7.4) for use in the assay at a final concentration of 70 pM. Test compounds are prepared as 10 mM stock solution in DMSO, then diluted in 384-well plates, first in DMSO, then in assay buffer. On the day of the assay, cells are washed 3 times with 100 μl assay buffer and then incubated for 60 minutes (37° C., 5% CO2) in 60 μl assay buffer containing 1 μM Fluo-4 AM ester, 0.02% pluronic acid, and 1% BSA. The dye loading solution is then aspirated and cells are washed 3 times with 100 μl assay buffer. 30 μl of that same buffer is left in each well. Within the Fluorescent Imaging Plate Reader (FLIPR, Molecular Devices), test compounds are added to the plate in a volume of 25 μl, incubated for 5 minutes, and then 25 μl of agonist is added. Fluorescence is measured for each well at 1 second intervals for 5 minutes, and the height of each fluorescence peak is compared to the height of the fluorescence peak induced by 70 pM of agonist ala-6,12 orexin-A with buffer in place of test compound. IC50 value for the test compound is determined to be the concentration of compound needed to inhibit 50% of the agonist response. Alternatively, compound potency can be assessed using a radioligand binding assay (described in Bergman et. al., Bioorg. Med. Chem. Lett. 2008, 18:1425-1430) in which the inhibition constant (Ki) is determined in membranes prepared from CHO cells expressing either the OX1 or OX2 receptor. The intrinsic orexin receptor antagonist activity of a compound of the present invention may be determined by these assays.
Sequence of human orexin-1 receptor (hOX1R) (O43613 whole entry): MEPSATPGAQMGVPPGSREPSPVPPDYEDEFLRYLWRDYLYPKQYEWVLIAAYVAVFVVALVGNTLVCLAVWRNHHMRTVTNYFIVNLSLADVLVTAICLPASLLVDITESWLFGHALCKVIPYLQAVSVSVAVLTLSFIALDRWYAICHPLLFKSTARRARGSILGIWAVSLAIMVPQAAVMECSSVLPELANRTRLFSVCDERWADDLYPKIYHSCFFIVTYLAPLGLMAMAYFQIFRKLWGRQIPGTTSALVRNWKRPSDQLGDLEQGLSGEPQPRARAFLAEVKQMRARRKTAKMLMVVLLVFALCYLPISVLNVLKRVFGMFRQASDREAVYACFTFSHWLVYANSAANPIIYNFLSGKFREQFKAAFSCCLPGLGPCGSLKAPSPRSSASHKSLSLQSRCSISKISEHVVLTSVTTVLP

Sequence of human orexin-2 receptor (hOX2R) (O43614 whole entry): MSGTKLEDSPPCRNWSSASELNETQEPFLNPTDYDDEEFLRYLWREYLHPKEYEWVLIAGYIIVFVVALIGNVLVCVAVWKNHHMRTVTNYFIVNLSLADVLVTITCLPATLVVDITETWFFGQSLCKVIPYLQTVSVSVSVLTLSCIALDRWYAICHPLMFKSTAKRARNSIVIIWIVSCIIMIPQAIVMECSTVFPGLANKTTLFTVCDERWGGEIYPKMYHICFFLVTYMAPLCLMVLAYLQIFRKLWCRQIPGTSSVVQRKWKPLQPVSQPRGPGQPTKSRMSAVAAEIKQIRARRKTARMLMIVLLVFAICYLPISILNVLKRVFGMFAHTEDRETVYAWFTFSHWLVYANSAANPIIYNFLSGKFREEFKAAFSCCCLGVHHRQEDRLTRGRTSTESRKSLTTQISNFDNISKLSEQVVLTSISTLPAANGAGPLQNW

Turning to `C[C@@H]1CC[C@@H](c2nc([C@H](O)C(F)(F)F)cs2)CN1C(=O)c1ccccc1-n1nccn1` [Example 6, (2-(2H-1,2,3-triazol-2-yl)phenyl)((2R,5R)-2-methyl-5-(4-((S)-2,2,2-trifluoro-1-hydroxyethyl)thiazol-2-yl)piperidin-1-yl)methanone], the IC50 (usually the concentration that inhibits the measured activity by half) was 165 nM in assay [1] and 10000 nM in assay [2].
Consider `C[C@@H]1CC[C@@H](c2csc(C(C)(C)O)n2)CN1C(=O)c1ccccc1-n1nccn1` [Example 36, (2-(2H-1,2,3-triazol-2-yl)phenyl)((2R,5R)-5-(2-(2-hydroxypropan-2-yl)thiazol-4-yl)-2-methylpiperidin-1-yl)methanone], for which the values for the half-maximal inhibitory concentration (IC50) in assay [1] and in assay [2] were 20 nM and 2300 nM, respectively.
The corresponding values for `C[C@@H]1CC[C@@H](c2nc(C(C)(C)O)cs2)CN1C(=O)c1ccccc1-c1ncccn1` [Example 17, ((2R,5R)-5-(4-(2-Hydroxypropan-2-yl)thiazol-2-yl)-2-methylpiperidin-1-yl)(2-(pyrimidin-2-yl)phenyl)methanone] are 29 nM and 5470 nM.
For `Cc1sc([C@@H]2CC[C@@H](C)N(C(=O)c3ccccc3C3(C#N)CC3)C2)nc1C(C)(C)O` [Example 25, 1-(2-((2R,5R)-5-(4-(2-Hydroxypropan-2-yl)-5-methylthiazol-2-yl)-2-methylpiperidine-1-carbonyl)phenyl)cyclopropanecarbonitrile], in that order: 12 nM and 240 nM.
The corresponding values for `C[C@@H]1CC[C@@H](c2nc([C@@H](O)C(F)(F)F)cs2)CN1C(=O)c1ccccc1-n1nccn1` [Example 7, (2-(2H-1,2,3-triazol-2-yl)phenyl)((2R,5R)-2-methyl-5-(4-((R)-2,2,2-trifluoro-1-hydroxyethyl)thiazol-2-yl)piperidin-1-yl)methanone] are 15 nM and 360 nM.
Turning to `C[C@@H]1CC[C@@H](c2csc(C(C)(C)O)n2)CN1C(=O)c1cscc1-n1nccn1` [Example 35, (4-(2H-1,2,3-triazol-2-yl)thiophen-3-yl)((2R,5R)-5-(2-(2-hydroxypropan-2-yl)thiazol-4-yl)-2-methylpiperidin-1-yl)methanone], the figures for the half-maximal inhibitory concentration (IC50) in assay [1] and in assay [2] were 14 nM and > 10000 nM, respectively.
For the compound `C[C@@H]1CC[C@@H](c2ncc(C(C)(C)O)s2)CN1C(=O)c1ccccc1-n1nccn1` [Example 2, (2-(2H-1,2,3-Triazol-2-yl)phenyl)((2R,5R)-5-(5-(2-hydroxypropan-2-yl)thiazol-2-yl)-2-methylpiperidin-1-yl)methanone], the values for the concentration for half-maximal inhibition (IC50) in assay [1] and in assay [2] were 67 nM and > 10000 nM, respectively.
For `C[C@@H]1CC[C@@H](c2nc(C(C)(C)O)cs2)CN1C(=O)c1cscc1-c1ncccn1` [Example 16, ((2R,5R)-5-(4-(2-hydroxypropan-2-yl)thiazol-2-yl)-2-methylpiperidin-1-yl)(4-(pyrimidin-2-yl)thiophen-3-yl)methanone], in that order: 25 nM and 1000 nM.
The corresponding values for `C[C@@H]1CC[C@@H](c2csc(C(C)(C)O)n2)CN1C(=O)c1ccccc1CS(C)(=O)=O` [Example 34, ((2R,5R)-5-(2-(2-hydroxypropan-2-yl)thiazol-4-yl)-2-methylpiperidin-1-yl)(2-((methylsulfonyl)methyl)phenyl)methanone] are 40 nM and > 10000 nM.
For the compound `Cc1sc([C@@H]2CC[C@@H](C)N(C(=O)c3ccccc3-c3ncccn3)C2)nc1C(C)(C)O` [Example 23, ((2R,5R)-5-(4-(2-Hydroxypropan-2-yl)-5-methylthiazol-2-yl)-2-methylpiperidin-1-yl)(2-(pyrimidin-2-yl)phenyl)methanone], the concentration for half-maximal inhibition (IC50) in assay [1] was 27 nM; in assay [2], 600 nM.
In the case of `C[C@@H]1CC[C@@H](c2nc(C(C)(C)O)cs2)CN1C(=O)c1ccccc1-n1nccn1` [Example 5], the half-maximal inhibitory concentration (IC50) was determined as 17 nM in assay [1] and 2250 nM in assay [2].
For `C[C@@H]1CC[C@@H](c2nc([C@@H](O)C(F)F)cs2)CN1C(=O)c1ccccc1-n1nccn1` [Example 8], in that order: 133 nM and > 10000 nM.
For `C[C@@H]1CC[C@@H](c2csc(C(C)(C)O)n2)CN1C(=O)c1cscc1-c1ncccn1` [Example 32, ((2R,5R)-5-(2-(2-hydroxypropan-2-yl)thiazol-4-yl)-2-methylpiperidin-1-yl)(4-(pyrimidin-2-yl)thiophen-3-yl)methanone], the values for the half-maximal inhibitory concentration (IC50) in assay [1] and in assay [2] were 130 nM and > 10000 nM, respectively.
For `Cc1sc([C@@H]2CC[C@@H](C)N(C(=O)c3cscc3-n3nccn3)C2)nc1C(C)(C)O` [Example 21, (4-(2H-1,2,3-triazol-2-yl)thiophen-3-yl)((2R,5R)-5-(4-(2-hydroxypropan-2-yl)-5-methylthiazol-2-yl)-2-methylpiperidin-1-yl)methanone], in that order: 30 nM and 2800 nM.
The corresponding values for `Cc1sc([C@@H]2CC[C@@H](C)N(C(=O)c3ccccc3CS(C)(=O)=O)C2)nc1C(C)(C)O` [Example 26, ((2R,5R)-5-(4-(2-Hydroxypropan-2-yl)-5-methylthiazol-2-yl)-2-methylpiperidin-1-yl)(2-((methylsulfonyl)methyl)phenyl)methanone] are 32 nM and > 10000 nM.
On to `C[C@@H]1CC[C@@H](c2cnc(C(C)(C)O)s2)CN1C(=O)c1ccccc1-n1nccn1` [Example 4, (2-(2H-1,2,3-triazol-2-yl)phenyl)((2R,5R)-5-(2-(2-hydroxypropan-2-yl)thiazol-5-yl)-2-methylpiperidin-1-yl)methanone], for which the figures for the IC50 in assay [1] and in assay [2] were 50 nM and > 10000 nM, respectively.
For `Cc1sc([C@@H]2CC[C@@H](C)N(C(=O)c3ccccc3-n3nccn3)C2)nc1C(C)(C)O` [Example 19, (2-(2H-1,2,3-Triazol-2-yl)phenyl)((2R,5R)-5-(4-(2-hydroxypropan-2-yl)-5-methylthiazol-2-yl)-2-methylpiperidin-1-yl)methanone], in that order: 14 nM and 330 nM.
The corresponding values for `Cc1sc([C@@H]2CC[C@@H](C)N(C(=O)c3ccccc3-n3ncnn3)C2)nc1C(C)(C)O` [Example 24, (2-(2H-Tetrazol-2-yl)phenyl)((2R,5R)-5-(4-(2-hydroxypropan-2-yl)-5-methylthiazol-2-yl)-2-methylpiperidin-1-yl)methanone] are 19 nM and 2650 nM.
For `C[C@@H]1CC[C@@H](c2nc(C(C)(C)O)cs2)CN1C(=O)c1ccccc1C1(C#N)CC1` [Example 11, 1-(2-((2R,5R)-5-(4-(2-Hydroxypropan-2-yl)thiazol-2-yl)-2-methylpiperidine-1-carbonyl)phenyl)cyclopropanecarbonitrile], in that order: 15 nM and 950 nM.
